Article PMC6152666, “Five New Limonoids from Peels of Satsuma Orange (Citrus reticulata)” (Molecules : A Journal of Synthetic Chemistry and Natural …, 2017)
“Also recorded” adds a separate entry of the source.

Legend:
[1] = system: NO production in RAW264.7 mouse macrophages stimulated by lipopolysaccharide (LPS); experiment: Inhibitory assay of NO production in LPS-stimulated RAW264.7 macrophages; type: cell-based; settings: for activity at 1 µM / activity at 3 µM / activity at 10 µM / activity at 30 µM / IC50: Mus musculus; for activity at 1 µM / activity at 3 µM / activity at 10 µM / activity at 30 µM / IC50 / Inhibitory Ratio of NO % (produced NO ratio): RAW264.7 + LPS 5 μg/mL, 24 h; for activity at 1 µM / activity at 3 µM / activity at 10 µM / activity at 30 µM / Inhibitory Ratio of NO % (produced NO ratio): vehicle control = 100%, mean ± S.E., n=4; for activity at 1 µM / activity at 3 µM / activity at 10 µM: read-out: Inhibitory Ratio of NO %; for activity at 30 µM: read-out: Inhibitory Ratio of NO % (produced NO ratio); for activity at 30 µM / Inhibitory Ratio of NO % (produced NO ratio): 30 μM
Text: Macrophages may be a potential therapeutic target for inflammatory diseases. Activated macrophages release pro-inflammatory mediators, such as NO, reactive oxygen species, interleukin-1β, tumor necrosis factor-α, and other inflammatory mediators, which play important roles in biological defense. However, the overexpression of these mediators had been implicated in diseases such as osteoarthritis, rheumatoid arthritis, and diabetes because the increased production of pro-inflammatory mediators induces severe or chronic inflammation. Isolated compounds (1–12), and N^G-monomethyl-L-arginine, acetate (L-NMMA), which is a NO synthase inhibitor and was used as a positive control, were evaluated for macrophage activation by the inhibitory assay of NO production in RAW264.7 mouse macrophages stimulated by lipopolysaccharide (LPS).
(§1) RAW264.7 cells were grown in D-MEM medium supplemented with 10% FBS and antibiotics (100 units/mL penicillin G sodium salt and 100 μg/mL streptomycin sulfate). Cells were incubated at 37 °C in a 5% CO2 humidified incubator.
An inhibitory assay of NO production was performed according to a method reported previously with slight modifications. Briefly, RAW264.7 cells (5 × 10^4 cells in 100 μL) were seeded into a 96-well microplate and incubated for 24 h. DMEM containing test samples (100 μL total volume, final concentration of 30, 10, 3, or 1 μM) dissolved in DMSO (final concentration 0.2%), and LPS (final concentration of 5 μg/mL), was added. After treatment for 24 h, the supernatant of culture medium was transferred to another 96-well microplate, and then 50 μL of 0.15% N-(1-naphtyl)ethylenediamine in H2O, and 1.5% sulfanilamide in 7.5% phosphoric acid were added. After incubation for 30 min, the absorbance of each well was read at 570 nm using a microplate reader. The optical density of vehicle control cells was assumed to be 100%.

[2] = Cytotoxicity assay (MTT) in RAW264.7 cells; type: cell-based, mouse; settings: mouse, RAW264.7 cells, RAW264.7, MTT, 24 h, vehicle control = 100%, mean ± S.E., n=4, read-out: Cell Viability %
Experimental: as §1
(§2) Cytotoxicity assay was performed according to a method reported previously Briefly, RAW264.7 cells (5 × 10^4 cells in 100 μL) were seeded onto a 96-well microplate and incubated for 24 h. DMEM containing test samples (100 μL total volume, final concentration of 30, 10, 3, or 1 μM) dissolved in DMSO (final concentration 0.2%) was added. After treatment for 24 h, MTT solution was added. After a 3-h incubation, 20% sodium dodecyl sulfate in 0.1 M HCl was added to dissolve the formazan produced in the cells. The absorbance of each well was read at 570 nm using a microplate reader. The optical density of vehicle control cells was assumed to be 100%.

[3] = system: RAW264.7 cells; experiment: Cytotoxicity assay (MTT) in RAW264.7 cells; type: cell-based, mouse; settings: RAW264.7, 1–30 μM
Experimental: as §1, §2

Row | SMILES | activity at 1 µM [1] [%] | activity at 3 µM [1] [%] | activity at 10 µM [1] [%] | activity at 30 µM [1] [%] | IC50 [1] [µM] | viability at 24 h, 1 µM [2] [%] | viability at 24 h, 3 µM [2] [%] | viability at 24 h, 10 µM [2] [%] | viability at 24 h, 30 µM [2] [%] | Inhibitory Ratio of NO % (produced NO ratio) [1] [%] | inhibitory effect on NO production (in words) ([1]; RAW264.7 + LPS, 1–30 μM) | cytotoxicity (in words) [3] | melting point [°C]
1 | COC1OC(OC)C2(C3OC(=O)C4OC45C3(C)CCC3C46COC(=O)CC4OC(C)(C)C6CC(=O)C35C)OC12 (centres unmarked) [Compound 9, evolimorutanin] | 94.3 ± 4.3 | 85.2 ± 6.4 | 91.3 ± 2.8 | 89.9 ± 3.2 | > 30 | 101 | 97.7 | 101 | 97.6 | – | – | – | –
2 | CC1(C)O[C@H]2CC(=O)OC[C@]23[C@H]2CC[C@@]4(C)[C@H](C5=CCOC5=O)OC(=O)[C@H]5O[C@]54[C@]2(C)C(=O)C[C@@H]13 [Compound 5, 21,23-Dihydro-21-oxolimonin] | 99.5 ± 5.6 | 101 ± 4.7 | 93.8 ± 1.6 | 83.2 | > 30 | 97.9 | 97.9 | 99.5 | 96.6 | 83.2 ± 5.6 | – | – | –
3 | CC1(C)OC(=O)C[C@H](O)[C@]2(C)[C@H]3CC[C@@]4(C)[C@H](c5ccoc5)OC(=O)[C@H]5O[C@]54[C@]3(C)C(=O)C[C@@H]12 [Compound 11, deacetylnomilin] | 104 ± 3.1 | 93.2 ± 3.2 | 84.7 ± 3.2 | 78.1 | > 30 | 95.9 | 100 | 99.3 | 100 | 78.1 ± 3.4 | – | – | –
4 | CC1(C)O[C@H]2CC(=O)OC[C@]23[C@H]2CC[C@@]4(C)[C@H](c5ccoc5)OC(=O)[C@H]5O[C@]54[C@]2(C)C(=O)C[C@@H]13 [Compound 6, limonin] | 102 ± 4.4 | 93.4 ± 5.7 | 90.9 ± 3.1 | 86 ± 5.5 | > 30 | 100 | 95.6 | 97.2 | 99.3 | – | – | – | –
5 | COC1C=C([C@@H]2OC(=O)[C@H]3O[C@@]34[C@@]2(C)CC[C@@H]2[C@@]35COC(=O)C[C@@H]3OC(C)(C)[C@@H]5CC(=O)[C@]24C)C(=O)O1 (some centres unmarked) [Compound 4, 21,23-dihydro-23-methoxy-21-oxolimonin] | 96.2 ± 7.9 | 94 ± 2.7 | 101 ± 1.2 | 95.2 ± 3.4 | > 30 | 103 | 97 | 95.1 | 91.7 | – | – | – | –
6 | COC1C=C([C@@H]2OC(=O)[C@H]3O[C@@]34[C@@]2(C)CC[C@@H]2[C@@]3(C)[C@@H](OC(C)=O)CC(=O)OC(C)(C)[C@@H]3CC(=O)[C@]24C)C(=O)O1 (some centres unmarked) [Compound 2, 21,23-dihydro-23-methoxy-21-oxonomilin] | 95.2 ± 1.6 | 89.8 ± 2.1 | 80.4 ± 2.1 | 39.3 ± 0.5 | 25.4 | 101 | 98.7 | 99.1 | 94.5 | – | exhibited NO inhibitory activity | without cytotoxicity; also recorded: without cytotoxicities | 208 to 210
7 | CC1(C)OC(=O)C=C[C@]2(C)[C@H]3CC[C@@]4(C)[C@H](C5=CC(=O)OC5O)OC(=O)[C@H]5O[C@]54[C@]3(C)C(=O)C[C@@H]12 (some centres unmarked) [Compound 10, kihadanin A] | 95 ± 4.2 | 96.8 ± 1.3 | 97.7 ± 2.2 | 86.6 ± 1.6 | > 30 | 105 | 102 | 98.9 | 98.6 | – | – | – | –
